Laboratory results taken from patent US8697390B2, “Method and kit for examination of cells using N-(9-acridinyl) maleimide (NAM) or using 7-diethylamino-3-((4′-iodacetyl)amino)phenyl)-4-methylkcoumarin (CPI)” (ChemoMetec A/S, priority 2008, dated 2014).

Legend:
Jurkat (JM) cells = assay: CPI/PI staining as marker of cell viability in proliferating Jurkat cells; format: cell-based; conditions: 98% viable, 10 μL CPI (100 μg/mL DMSO) in 90 μL cells
Protocol: Jurkat (JM) cells were grown at 37° C. in a humidified air atmosphere with 5% CO2 in RPMI (Invitrogen, #61870) supplemented with 10% heat-inactivated fetal bovine serum (Invitrogen, #10108-165). 90 μL proliferating Jurkat cells (cell density 1.1×10^6, 98% viable determined using the NC-100 NucleoCounter system following the manufacturer's (ChemoMetec) protocol) were added 10 μL CPI (7-diethylamino-3-((4′-(iodoacetyl)amino)phenyl)-4-methylcoumarin, Sigma 78264 CAS no. 76877-34-4) dissolved in DMSO (100 μg CPI pr. mL DMSO) and mixed by pipetting. Cells were loaded into a NucleoCassette, containing the DNA stain propidium iodide (PI). The cells were investigated using an Olympus IX50 fluorescent microscope, and images were captured using a Lumenera CCD camera and in-house developed software. PI and CPI fluorescence were detected using, respectively, U-MWG2 (green long pass: 510-550 nm) and U-MNUA2 (UV band pass, 330-385 nm) filter cubes (Olympus).

HEK293 cells = assay: NAM/PI staining to determine viability of outgrown HEK293 cells (fluorescence microscopy); format: cell-based, human; conditions: HEK293 cells treated with 0.25% Triton X-100, then 10 μg/mL NAM; PI from NucleoCassette
Protocol: HEK293 cells were grown at 37° C. in a humidified air atmosphere with 5% CO2 in DMEM (Invitrogen, #31966) supplemented with 10% heat-inactivated fetal bovine serum (Invitrogen, #10108-165). Cells were harvested with 0.5 mL of trypsin (Invitrogen, #25300) and neutralized with 5 mL medium (DMEM+10% FCS) two days after they had reached full confluency. These outgrown HEK293 cells (cell density 1.6×10^6, 78% viable determined using the NC-100 NucleoCounter system following the manufacturer's (ChemoMetec) protocol) were stained with 10 μg/mL NAM (Sigma, #01665). Another cell sample were treated with 0.25% Triton X-100 (Sigma, #T9284) and hereafter added 10 μg/mL NAM. After staining, each cell sample was loaded into a NucleoCassette, containing the DNA stain propidium iodide (PI). The cells were investigated using an Olympus IX50 fluorescent microscope, and images were captured using a Lumenera CCD camera and in-house developed software. PI and NAM fluorescence were detected using, respectively, U-MWG2 (green long pass: 510-550 nm) and U-MNUA2 (UV band pass, 330-385 nm) filter cubes (Olympus).

Compound | staining of cells by CPI versus PI (Jurkat (JM) cells) | staining of Triton X-100 treated cells (HEK293 cells)
CCN(CC)c1ccc2c(C)c(-c3ccc(NC(=O)CI)cc3)c(=O)oc2c1 [CPI, 7-diethylamino-3-((4′-(iodoacetyl)amino)phenyl)-4-methylcoumarin] | nearly all cells were stained by CPI | 
CC[N+](C)(CC)CCC[n+]1c(-c2ccccc2)c2cc(N)ccc2c2ccc(N)cc21.[I-].[I-] [PI, propidium iodide] |  | PI positive
